# Experimental data taken from ChEMBL document CHEMBL1124516, “Synthesis of 2,3-diaziridinyl-1,4-naphthoquinone sulfonate derivatives as potential antineoplastic agents” (1989).
# Columns and labels:
# Mus musculus [1] = assay: Number of mice survived for a period of greater than 50 days when a dose of 5 mg/Kg is administered intraperitoneally; tested in 5 mice; assay type: functional
# Mus musculus [2] = assay: The ratio of the survival time of treated to control animals x 100 in mice bearing L1210 Leukemia, when compound (10 mg/kg) was administered intraperitoneally; assay type: functional
# Mus musculus [3] = assay: Average change in weight in mice bearing the L1210 Leukemia, when compound (5 mg/kg) was administered beginning 24 hr after tumor implantation, daily once for 6 consecutive days.; assay type: functional
# Mus musculus [4] = assay: Number of mice survived for a period of greater than 50 days when a dose of 10 mg/kg is administered intraperitoneally; tested in 5 mice; assay type: functional; conditions: route intraperitoneal
# Mus musculus [5] = assay: Number of mice survived for a period of greater than 50 days when a dose of 15 mg/kg is administered intraperitoneally; tested in 5 mice; assay type: functional; conditions: route intraperitoneal
# Mus musculus [6] = assay: Average change in weight in mice bearing the L1210 Leukemia, when compound (10 mg/kg) was administered beginning 24 hr after tumor implantation, daily once for 6 consecutive days.; assay type: functional
# Mus musculus [7] = assay: Average change in weight in mice bearing the L1210 Leukemia, when compound (15 mg/kg) was administered beginning 24 hr after tumor implantation, daily once for 6 consecutive days.; assay type: functional
# Mus musculus [8] = assay: The ratio of the survival time of treated to control animals x 100 in mice bearing L1210 leukemia, when compound (5 mg/kg) was administered intraperitoneally; assay type: functional
# Mus musculus [9] = assay: The ratio of the survival time of treated to control animals x 100 in mice bearing L1210 Leukemia, when compound (15 mg/kg) was administered intraperitoneally; assay type: functional
# Mus musculus [10] = assay: Survival of mice bearing B16 melanoma cells greater than 50 days when treated with a dose of 100 mg/Kg administered intraperitoneally; tested in 5 mice; assay type: functional
# L1210 [11] = assay: Number L1210 (murine leukemia) inoculated mice surviving for >50 days following 25 mg/kg i.p.; assay type: functional, Mus musculus; conditions: route intraperitoneal
# Mus musculus [12] = assay: Average change in weight in mice bearing the B16 Melanoma, when compound(150 mg/kg) was administered beginning 24 hr after tumor implantation, daily once for 6 consecutive days.; assay type: functional
# Mus musculus [13] = assay: Number of mice survived for a period greater than 50 days when a dose of 20 mg/Kg is administered intraperitoneally; tested in 5 mice; assay type: functional
# Mus musculus [14] = assay: The ratio of the survival time of treated to control animals x 100 in mice bearing B16 Melanoma, when compound (50 mg/kg) was administered intraperitoneally; assay type: functional
# L1210 [15] = assay: Percentage survival time of L1210 (murine leukemia) inoculated mice following 30 mg/kg i.p.; assay type: functional, Mus musculus; conditions: route intraperitoneal
# Mus musculus [16] = assay: Average change in weight in mice bearing the B16 Melanoma, when compound(100 mg/kg) was administered beginning 24 hr after tumor implantation, daily once for 6 consecutive days.; assay type: functional
# Mus musculus [17] = assay: Average change in weight in mice bearing the L1210 Leukemia, when compound (20 mg/kg) was administered once daily beginning 24 hr after tumor implantation, for 6 consecutive days.; assay type: functional
# Mus musculus [18] = assay: Average change in weight in mice bearing the L1210 Leukemia, when compound(30 mg/kg) was administered once daily beginning 24 hr after tumor implantation, for 6 consecutive days.; assay type: functional
# Mus musculus [19] = assay: Survival of mice bearing B16 melanoma cells greater than 50 days when treated with a dose of 150 mg/Kg administered intraperitoneally; tested in 5 mice; assay type: functional
# Mus musculus [20] = assay: Average change in weight in mice bearing the L1210 Leukemia, when compound (25 mg/kg) was administered once daily beginning 24 hr after tumor implantation, for 6 consecutive days.; assay type: functional
# Mus musculus [21] = assay: The ratio of the survival time of treated to control animals x 100 in mice bearing B16 Melanoma, when compound (100 mg/kg) was administered intraperitoneally; assay type: functional
# Mus musculus [22] = assay: The ratio of the survival time of treated to control animals x 100 in mice bearing B16 Melanoma, when compound (150 mg/kg) was administered intraperitoneally; assay type: functional
# Mus musculus [23] = assay: Survival of mice bearing B16 melanoma cells greater than 50 days when treated with a dose of 50 mg/Kg administered intraperitoneally; tested in 5 mice; assay type: functional
# Mus musculus [24] = assay: Average change in weight in mice bearing the B16 Melanoma, when compound(50 mg/kg) was administered intraperitoneally beginning 24 hr after tumor implantation, daily once for 6 consecutive days.; assay type: functional
# Mus musculus [25] = assay: Number of mice surviving for a period greater than 50 days when a dose of 30 mg/Kg is administered intraperitoneally; tested in 5 mice; assay type: functional
# Mus musculus [26] = assay: Average change in weight in mice bearing the B16 Melanoma, when compound (20 mg/kg) was administered beginning 24 hr after tumor implantation, daily once for 6 consecutive days.; assay type: functional
# Mus musculus [27] = assay: Average change in weight in mice bearing the B16 Melanoma, when compound (15 mg/kg) was administered beginning 24 h after tumor implantation, daily once for 6 consecutive days.; assay type: functional
# Mus musculus [28] = assay: Average change in weight in mice bearing the L1210 Leukemia, when compound(15 mg/kg) was administered beginning 24 h after tumor implantation, daily once for 6 consecutive days.; assay type: functional
# Mus musculus [29] = assay: The ratio of the survival time of treated to control animals x 100 in mice bearing B16 Melanoma, when compound (15 mg/kg) was administered intraperitoneally; assay type: functional
# Mus musculus [30] = assay: The ratio of the survival time of treated to control animals x 100 in mice bearing B16 Melanoma, when compound (20 mg/kg) was administered intraperitoneally; assay type: functional
# Mus musculus [31] = assay: The ratio of the survival time of treated to control animals x 100 in mice bearing B16 Melanoma, when compound (5 mg/kg) was administered intraperitoneally; assay type: functional
# Mus musculus [32] = assay: Average change in weight in mice bearing the B16 Melanoma, when compound(10 mg/kg) was administered intraperitoneally beginning 24 hr after tumor implantation, daily once for 6 consecutive days.; assay type: functional
# Mus musculus [33] = assay: Number of mice survived for a period of greater than 50 days when a dose of 10 mg/Kg is administered intraperitoneally; tested in 5 mice; assay type: functional
# Mus musculus [34] = assay: Number of mice survived for a period of greater than 50 days when a dose of 15 mg/Kg is administered intraperitoneally; tested in 5 mice; assay type: functional
# Mus musculus [35] = assay: The ratio of the survival time of treated to control animals x 100 in mice bearing L1210 leukemia, when compound (3 mg/kg) was administered intraperitoneally; assay type: functional
# Mus musculus [36] = assay: Number of mice survived for a period of greater than 50 days when a dose of 3 mg/Kg is administered intraperitoneally; tested in 5 mice; assay type: functional
# Mus musculus [37] = assay: Average change in weight in mice bearing the L1210 Leukemia, when compound (3 mg/kg) was administered beginning 24 hr after tumor implantation, daily once for 6 consecutive days.; assay type: functional
# Mus musculus [38] = assay: The ratio of the survival time of treated to control animals x 100 in mice bearing B16 Melanoma, when compound (3 mg/kg) was administered intraperitoneally; assay type: functional
# Mus musculus [39] = assay: Survival of mice bearing B16 melanoma cells greater than 50 days when treated with a dose of 3 mg/Kg administered intraperitoneally; tested in 5 mice; assay type: functional
# Mus musculus [40] = assay: Average change in weight in mice bearing the B16 Melanoma, when compound(3 mg/kg) was administered beginning 24 hr after tumor implantation, daily once for 6 consecutive days.; assay type: functional
# L1210 [41] = assay: Percentage survival time of L1210 (murine leukemia) inoculated mice following 20 mg/kg i.p.; assay type: functional, Mus musculus; conditions: route intraperitoneal
# Mus musculus [42] = assay: Number of mice survived for a period of greater than 50 days when a dose of 25 mg/Kg is administered intraperitoneally; tested in 10 mice; assay type: functional
# L1210 [43] = assay: Percentage survival time of L1210 (murine leukemia) inoculated mice following 25 mg/kg i.p.; assay type: functional, Mus musculus; conditions: route intraperitoneal
# Mus musculus [44] = assay: Number of mice survived for a period of greater than 50 days when a dose of 20 mg/Kg is administered intraperitoneally; tested in 10 mice; assay type: functional
# Mus musculus [45] = assay: Number of mice survived for a period of greater than 50 days when a dose of 30 mg/Kg is administered intraperitoneally; tested in 10 mice; assay type: functional
# Mus musculus [46] = assay: Number of mice survived for a period of greater than 50 days when a dose of 25 mg/Kg is administered intraperitoneally; tested in 4 mice; assay type: functional
Compound,Activity (Mus musculus [2]),Average weight (Mus musculus [3]) [%],Average weight (Mus musculus [6]) [%],Activity (Mus musculus [8]),Activity (Mus musculus [9]),Survivals (Mus musculus [10]),Average change in body weight (Mus musculus [12]) [%],Survivals (Mus musculus [13]),Activity (Mus musculus [14]),Activity (L1210 [15]),Average change in body weight (Mus musculus [16]) [%],Average change in body weight (Mus musculus [17]) [%],Average change in body weight (Mus musculus [18]) [%],Survivals (Mus musculus [19]),Average body weight change (Mus musculus [20]) [%],Activity (Mus musculus [21]),Activity (Mus musculus [22]),Survivals (Mus musculus [23]),Average body weight change (Mus musculus [24]) [%],Survivals (Mus musculus [25]),further results
O=C1C(N2CC2)=CC(=O)c2c(O)cccc21,94,12.7,5.1,231,90,–,–,–,–,–,–,–,–,–,–,–,–,–,–,–,Survival (Mus musculus [1]): 0; Survival (Mus musculus [4]): 0; Survival (Mus musculus [5]): 0; Average weight (Mus musculus [7]): 2.1%
O=C1C(N2CC2)=C(N2CC2)C(=O)c2c(OS(=O)(=O)c3ccccc3)cccc21,–,–,–,–,–,0,-13.5,5,156,359,-12.3,-6.2,-7,0,-8.3,180,148,0,-1.3,4,Survivals (L1210 [11]): 5
CS(=O)(=O)Oc1cccc2c1C(=O)C(N1CC1)=C(N1CC1)C2=O,185,3.3,-7.1,130,295,–,–,0,–,–,–,–,–,–,–,–,–,–,–,2,Survivals (L1210 [11]): 4; Average weight (Mus musculus [26]): -8.1%; Average weight (Mus musculus [27]): -6.4%; Average weight (Mus musculus [28]): -10%; Activity (Mus musculus [29]): 137; Activity (Mus musculus [30]): 153; Activity (Mus musculus [31]): 125; Average weight (Mus musculus [32]): -3.8%
O=C1C(N2CC2)=C(N2CC2)C(=O)c2c(O)cccc21,96,6.3,-3.2,114,104,–,–,–,–,–,–,–,–,–,–,–,–,–,–,–,Survivals (Mus musculus [33]): 0; Survivals (Mus musculus [1]): 0; Survivals (Mus musculus [34]): 0; Average weight (Mus musculus [7]): -0.8%
CCOC(=O)NC1=C(N2CC2)C(=O)C(NC(=O)OCC)=C(N2CC2)C1=O [DIAZIQUONE],–,–,–,–,–,–,–,–,–,–,–,–,–,–,–,–,–,–,–,–,Activity (Mus musculus [35]): 231; Survivals (Mus musculus [36]): 0; Average weight (Mus musculus [37]): -11.7%; Activity (Mus musculus [38]): 147; Survivals (Mus musculus [39]): 0; Average weight (Mus musculus [40]): -13.8%
Cc1ccc(S(=O)(=O)Oc2cccc3c2C(=O)C(N2CC2)=C(N2CC2)C3=O)cc1,–,–,–,–,–,0,-9.8,–,144,248,-1.9,-2.2,-7.4,0,-3.5,153,141,0,4.5,–,Activity (L1210 [41]): 155; Survivals (Mus musculus [42]): 9; Activity (L1210 [43]): 490; Survivals (Mus musculus [44]): 7; Survivals (Mus musculus [45]): 7
O=C1C(N2CC2)=C(N2CC2)C(=O)c2c(OS(=O)(=O)c3ccc(Cl)cc3)cccc21,–,–,–,–,–,0,-3.2,0,143,167,-2.5,4.2,-2.7,0,1.7,153,178,0,1.1,3,Activity (L1210 [41]): 161; Survivals (L1210 [11]): 0; Activity (L1210 [43]): 200
COc1ccc(S(=O)(=O)Oc2cccc3c2C(=O)C(N2CC2)=C(N2CC2)C3=O)cc1,–,–,–,–,–,0,-15.2,0,132,193,-12.4,-0.1,-1.3,0,-2.4,154,165,0,-4.7,3,Activity (L1210 [41]): 175; Survivals (Mus musculus [46]): 1; Activity (L1210 [43]): 222
